Data on eight molecules can be found in paper PMC4304288, “Function through bio-inspired, synthesis-informed design: step-economical syntheses of designed kinase inhibitors” (Organic Chemistry Frontiers, 2014).

For the first test, the system named is PKCβ.
Assay: not given
The conditions noted are these: cited from earlier work.
As for `Cn1cc(C2=C(c3cn(C4CCN(Cc5ccccn5)CC4)c4ccccc34)C(=O)NC2=O)c2ccccc21` [enzastaurin], the “selectivity for PKCβ over PKCα” value is on record as 26 fold.
Take `CN(C)C[C@@H]1CCn2cc(c3ccccc32)C2=C(C(=O)NC2=O)c2cn(c3ccccc23)CCO1` [ruboxistaurin]: the “selectivity for PKCβ over PKCα” value is 60 fold.

A further test deals with PKC (rat brain mixture). The test is described as follows: PKC inhibition assay (protocol of Kikkawa, [γ-32P]ATP, histone). The test is classed as biochemical. The conditions noted are these: rat brain mixture of PKC isoforms. The protocol:
Our initial analogs were tested for inhibition of PKC[37],[38] (rat brain mixture) due to its clinical significance and our on-going and complementary work on PKC activators.[7b],[16],[26]
Simplified analog 19 was tested in the PKC inhibition assay using the rat brain mixture of PKC isoforms. […]. Computational docking[42] of the energy-minimized conformer of 19 in the computer-simulated ATP-binding pocket of PKCα (Fig. 3) illustrates the conserved hydrogen bonds between the maleimide and hinge region residues and the shape complementarity of the ligand with the pocket.
A PKC inhibition assay was performed following the protocol developed by Kikkawa and coworkers.5 The assay can be scaled as desired. Histone solution (0.33 mg/mL in 20 mM Tris buffer) was prepared from a stock solution (33 mg/mL, stored frozen). Phosphatidylserine (PS) vesicles were prepared by the addition of PS (10 mg/mL in chloroform, 240 µL) and dioleoylglycerol (10 mg/mL in ethanol, 40 µL) to a glass vial followed by removal of the chloroform under a stream of nitrogen. To the neat PS was added chilled 20 mM Tris assay buffer (2 mL) and the resulting mixture was sonicated (Branson Sonifier 250, power = 3, 30% duty cycle) four times for 30 sec with a 30 sec interval between sonications. The resulting milky suspension was stored on ice. "Stop" solution refers to a solution of 200 mM EDTA and 200 mM ATP in 20 mM Tris buffer.
Whatman filter papers were cut in 1 x 1 inches in dimension and labeled with tube number in pencil. An "Autogo" solution was prepared by mixing 27 µL of 3.75 mM ATP (in 20 mM Tris), 100 µL of 1.0 M MgCl2, 872 µL of 20 mM Tris buffer, and 1.3 µL of [γ-32P] ATP (total volume is 1 mL). "Autogo" solution should be kept in the hot hood all the time. "Cocktail 1" was prepared by mixing 70 µL of 10 mM Ca2+, 350 µL of 20 mM Tris, and 70 µL of histone solution (0.33 mg/mL in 20mM Tris). "Cocktail 2" was prepared by mixing 310 µL of 10 mM Ca2+, 930 µL of 20 mM Tris, 310 µL of the histone solution, and 310 µL of the PS solution (added only once the assay is ready to be run).
To each eppendorf tube, 10 µL of PKC solution and10 µL of the inhibitor solution were added. After addition of the inhibitor, each tube was vortexed. For negative controls, 70 µL of cocktail 1 was added to tubes 1 and 2. To the rest of the tubes were added 60 µL of cocktail 2. All the tubes were then transferred to the hot hood, and 20 µL of "Autogo" solution was added to each tube and vortexed immediately. A start countdown of 7 min was initiated when "Autogo" was added to the first tube. Addition to all the tubes should be completed within 7 min. When the countdown is over, "Stop" solution was added to each tube and vortexed. The interval between the addition of "Autogo" and "Stop" solution should be 7 min for each tube.
Contents of each tube was transferred to the piece of pre-labeled Whatman filter paper and the paper was washed by soaking them and swirling in a beaker filled with 300 mL of tap water. Once all the filter papers are soaked in the beaker, the supernatant was carefully drained (to the hot hood drain) and the papers were rinsed by soaking them in 300 mL of fresh tap water for 2 min. The water was decanted, and the papers were rinsed by soaking them in 300 mL of ethanol for 2 min. The ethanol should be recovered to a bottle in the hot hood (not to the drain). The papers were dried in the hot hood and each paper was transferred to a scintillation vial. The radiation was measured with the scintillation counter (Beckman LS 6000SC). The data set was analyzed using a least-square data-fitting algorithm in Prism 4 (Graphpad Software Inc.) to give an IC50 value (defined as the concentration of analogue required to inhibit 50% of PKC activity).
Turning to `NCCCn1c2ccc(Cl)cc2c2c3c(c4c(c21)CCC(O)CC4)C(=O)NC3=O` (centres unmarked) [Compound 10], the concentration for half-maximal inhibition (IC50) – broadly, the concentration at which inhibition is half-maximal – is 2.6 µM.
`NCCCn1c2ccc(Cl)cc2c2c3c(c4c(c21)CCC(N)CC4)C(=O)NC3=O` (centres unmarked) [Compound 11]: the half-inhibitory concentration (IC50) was 12.5 µM.
For the molecule `CNC1CCc2c3c(c4c5cc(Cl)ccc5n(CCCN)c4c2CC1)C(=O)NC3=O` (centres unmarked) [Compound 12], the IC50 amounted to 14.1 µM.
In the case of `CN(C)C1CCc2c3c(c4c5cc(Cl)ccc5n(CCCN)c4c2CC1)C(=O)NC3=O` (centres unmarked) [Compound 13], the IC50 came out at 2.9 µM.
Consider `CN(C)C1CCc2c3c(c4c5ccccc5n(CCCN)c4c2CC1)C(=O)NC3=O` (centres unmarked) [Compound 14], for which the concentration for half-maximal inhibition (IC50) was found to be 1.6 µM.
`CN(C)C1CCc2c(CC3CCNCC3)cc3c(c2CC1)C(=O)NC3=O` (centres unmarked) [Compound 19]: the IC50 turned out to be 0.013 µM.
